In ChEMBL document CHEMBL1152433, “Pyrano[3,2-c]quinoline-6-chlorotacrine hybrids as a novel family of acetylcholinesterase- and beta-amyloid-directed anti-Alzheimer compounds” (J Med Chem, 2009):
Activity calls are given as the source filed them. No cut-off for these calls is given here.

How the values were obtained:
Acetylcholinesterase [1] = molecular target: T1, Acetylcholinesterase (Bos taurus, UniProt P23795); assay: Inhibition of bovine AChE by Ellman's method
T1 sequence (P23795 whole entry): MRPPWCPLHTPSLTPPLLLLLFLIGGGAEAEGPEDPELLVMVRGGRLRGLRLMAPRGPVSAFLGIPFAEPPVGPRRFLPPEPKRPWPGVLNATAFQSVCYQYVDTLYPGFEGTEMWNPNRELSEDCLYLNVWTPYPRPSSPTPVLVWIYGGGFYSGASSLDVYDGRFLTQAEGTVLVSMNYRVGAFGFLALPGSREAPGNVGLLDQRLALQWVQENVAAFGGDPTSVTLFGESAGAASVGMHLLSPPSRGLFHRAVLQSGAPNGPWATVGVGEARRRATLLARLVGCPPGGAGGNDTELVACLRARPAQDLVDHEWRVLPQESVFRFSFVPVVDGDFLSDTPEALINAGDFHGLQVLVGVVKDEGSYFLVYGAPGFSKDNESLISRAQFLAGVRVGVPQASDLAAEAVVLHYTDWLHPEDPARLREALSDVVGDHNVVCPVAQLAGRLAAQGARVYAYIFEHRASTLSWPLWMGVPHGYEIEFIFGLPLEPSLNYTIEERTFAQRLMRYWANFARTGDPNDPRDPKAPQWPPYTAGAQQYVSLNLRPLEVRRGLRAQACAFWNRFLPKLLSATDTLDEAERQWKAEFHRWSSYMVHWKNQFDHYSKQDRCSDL

Cholinesterase = Cholinesterase (Homo sapiens, UniProt P06276); assay: Inhibition of human serum BChE by Ellman's method
Acetylcholinesterase [2] = molecular target: T2, Acetylcholinesterase (Homo sapiens, UniProt P22303)
Description: Inhibition of AChE in human erythrocytes by Ellman's method

in vitro [3] = details: PAMPA
Description: Membrane permeability dissolved in PBS/EtOH (70:30) mixture by PAMPA-BBB assay

in vitro [4] = details: PAMPA; remark: listed apart in the source
Description: Membrane permeability dissolved in PBS/EtOH (80:20) mixture by PAMPA-BBB assay

Acetylcholinesterase [5] = molecular target: T2, Acetylcholinesterase; assay: Inhibition of human recombinant AChE by Lineweaver-Burke reciprocal plot analysis
[6] = molecular target: Amyloid-beta precursor protein (Homo sapiens) (UniProt P05067); assay: Inhibition of self-induced amyloid beta (1-42) aggregation at 50 uM by thioflavin T fluorescence method
Beta-secretase 1 [7] = molecular target: T3, Beta-secretase 1 (Homo sapiens, UniProt P56817); assay: Inhibition of human recombinant BACE1 at 2.5 uM by fluorimetric assay
Beta-secretase 1 [8] = molecular target: T3, Beta-secretase 1; assay: Inhibition of human recombinant BACE1 by fluorimetric assay

T2 sequence (P22303 whole entry): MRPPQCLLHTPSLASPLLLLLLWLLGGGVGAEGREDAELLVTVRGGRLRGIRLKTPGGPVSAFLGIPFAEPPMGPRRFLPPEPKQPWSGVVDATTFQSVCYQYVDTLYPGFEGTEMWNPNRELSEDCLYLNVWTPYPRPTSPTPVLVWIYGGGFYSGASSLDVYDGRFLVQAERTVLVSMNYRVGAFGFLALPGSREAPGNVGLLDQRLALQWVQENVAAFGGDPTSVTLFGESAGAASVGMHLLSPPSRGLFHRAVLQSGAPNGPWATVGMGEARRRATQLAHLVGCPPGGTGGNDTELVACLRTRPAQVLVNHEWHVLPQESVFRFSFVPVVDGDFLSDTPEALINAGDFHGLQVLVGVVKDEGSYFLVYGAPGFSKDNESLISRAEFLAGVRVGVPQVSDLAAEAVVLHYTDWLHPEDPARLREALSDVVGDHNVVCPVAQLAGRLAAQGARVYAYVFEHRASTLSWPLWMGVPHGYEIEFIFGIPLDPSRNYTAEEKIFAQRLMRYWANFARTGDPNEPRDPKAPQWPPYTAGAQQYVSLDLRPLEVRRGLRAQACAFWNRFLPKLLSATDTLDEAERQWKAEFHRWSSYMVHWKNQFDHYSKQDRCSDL
Sequence of Amyloid-beta precursor protein (Homo sapiens) (P05067 whole entry): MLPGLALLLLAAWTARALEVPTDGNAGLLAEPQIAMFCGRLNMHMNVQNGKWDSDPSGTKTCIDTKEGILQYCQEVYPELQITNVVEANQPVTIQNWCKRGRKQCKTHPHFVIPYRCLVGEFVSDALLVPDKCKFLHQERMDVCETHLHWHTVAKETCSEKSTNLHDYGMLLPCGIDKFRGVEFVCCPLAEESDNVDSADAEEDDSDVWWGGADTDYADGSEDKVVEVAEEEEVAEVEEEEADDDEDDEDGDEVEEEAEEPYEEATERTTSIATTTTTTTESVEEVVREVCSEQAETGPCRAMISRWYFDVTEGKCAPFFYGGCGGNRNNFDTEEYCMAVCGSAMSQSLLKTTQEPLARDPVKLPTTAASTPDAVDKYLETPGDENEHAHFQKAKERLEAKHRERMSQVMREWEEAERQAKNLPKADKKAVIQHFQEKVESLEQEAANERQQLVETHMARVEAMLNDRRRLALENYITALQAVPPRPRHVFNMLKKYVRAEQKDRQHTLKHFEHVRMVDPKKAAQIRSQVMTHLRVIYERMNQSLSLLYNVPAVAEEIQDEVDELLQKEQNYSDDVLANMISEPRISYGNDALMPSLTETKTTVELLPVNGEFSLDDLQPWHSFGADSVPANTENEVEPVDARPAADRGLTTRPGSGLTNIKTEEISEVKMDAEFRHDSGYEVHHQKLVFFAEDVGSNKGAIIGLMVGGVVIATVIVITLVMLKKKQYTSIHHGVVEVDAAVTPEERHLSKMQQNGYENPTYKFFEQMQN
Sequence of Cholinesterase (P06276 whole entry): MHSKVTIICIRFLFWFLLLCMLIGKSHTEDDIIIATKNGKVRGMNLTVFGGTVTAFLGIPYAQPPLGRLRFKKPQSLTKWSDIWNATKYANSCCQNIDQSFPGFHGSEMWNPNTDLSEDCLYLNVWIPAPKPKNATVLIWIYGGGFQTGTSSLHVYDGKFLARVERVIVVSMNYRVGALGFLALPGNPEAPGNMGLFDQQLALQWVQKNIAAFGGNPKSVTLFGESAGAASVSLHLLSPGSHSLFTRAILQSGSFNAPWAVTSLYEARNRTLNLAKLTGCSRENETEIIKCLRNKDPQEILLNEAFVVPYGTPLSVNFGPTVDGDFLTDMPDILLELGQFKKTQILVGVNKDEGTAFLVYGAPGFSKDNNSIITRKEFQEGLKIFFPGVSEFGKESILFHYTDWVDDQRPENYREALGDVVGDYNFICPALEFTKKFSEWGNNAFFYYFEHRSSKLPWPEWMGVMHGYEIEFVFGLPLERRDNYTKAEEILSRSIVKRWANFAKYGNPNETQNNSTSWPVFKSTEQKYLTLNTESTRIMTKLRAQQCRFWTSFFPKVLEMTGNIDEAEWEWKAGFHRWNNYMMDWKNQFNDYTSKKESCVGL
T3 sequence (P56817 whole entry): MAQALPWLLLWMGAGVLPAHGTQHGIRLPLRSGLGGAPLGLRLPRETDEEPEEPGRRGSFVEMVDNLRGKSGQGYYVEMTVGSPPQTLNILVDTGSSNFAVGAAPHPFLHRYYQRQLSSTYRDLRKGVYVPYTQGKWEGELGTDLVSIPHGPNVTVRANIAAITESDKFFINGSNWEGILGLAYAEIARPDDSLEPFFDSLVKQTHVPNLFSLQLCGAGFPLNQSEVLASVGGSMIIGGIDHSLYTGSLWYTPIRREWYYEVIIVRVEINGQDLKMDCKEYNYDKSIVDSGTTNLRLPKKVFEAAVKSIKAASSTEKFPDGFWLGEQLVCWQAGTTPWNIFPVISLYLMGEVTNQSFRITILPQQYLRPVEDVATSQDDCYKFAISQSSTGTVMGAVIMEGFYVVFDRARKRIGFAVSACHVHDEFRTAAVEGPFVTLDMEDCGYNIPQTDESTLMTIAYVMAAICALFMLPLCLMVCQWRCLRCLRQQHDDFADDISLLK

Compound | IC50 (Acetylcholinesterase [1]) | IC50 (Cholinesterase) | IC50 (Acetylcholinesterase [2]) | Papp (in vitro [3]) | Papp (in vitro [4]) | Ki (Acetylcholinesterase [5]) | inhibition [6] | inhibition (Beta-secretase 1 [7]) | IC50 (Beta-secretase 1 [8])
O=C(NCCCCCCCCCNc1c2c(nc3cc(Cl)ccc13)CCCC2)c1ccc2nc(-c3ccc(Cl)cc3)c3c(c2c1)OCCC3 | 24 nM | 1390 nM | 24.9 nM |  |  |  |  |  | 
CN(C)CCCN1c2ccccc2Sc2ccc(Cl)cc21 [CHLORPROMAZINE] |  |  |  | 13.6 ×10⁻⁶ cm/s | 8.5 ×10⁻⁶ cm/s |  |  |  | 
CCOC(=O)c1ccc2nc(-c3ccc(Cl)cc3)c3c(c2c1)OCCC3 | > 10000 nM | > 10000 nM | > 10000 nM |  |  |  |  |  | 
O=C(NCCCCCCCCNc1c2c(nc3cc(Cl)ccc13)CCCC2)c1ccc2nc(-c3ccc(Cl)cc3)c3c(c2c1)OCCC3 | 10.4 nM | 331 nM | 7.03 nM |  |  | 1.91 nM | 21.5% | 18.5% | 
O=C(NCCCCCCCCCCNc1c2c(nc3cc(Cl)ccc13)CCCC2)c1ccc2nc(-c3ccc(Cl)cc3)c3c(c2c1)OCCC3 | 93.7 nM | 1620 nM | 50 nM |  |  |  | 20.5% | inactive | 
CC[N+](C)(CC)CCC[n+]1c(-c2ccccc2)c2cc(N)ccc2c2ccc(N)cc21 [PROPIDIUM] | 6290 nM |  |  |  |  |  | 89.8% |  | 
Cl.Cl.Cl.O=C(CCc1ccc2nc(-c3ccccc3)c3c(c2c1)OCCC3)NCCCCCCNc1c2c(nc3cc(Cl)ccc13)CCCC2 | 30.8 nM | 218 nM | 11.1 nM |  | 13.2 ×10⁻⁶ cm/s |  | 30.8% | 19.6% | 
c1ccc2c(NCCCCCCCNc3c4c(nc5ccccc35)CCCC4)c3c(nc2c1)CCCC3 |  |  |  |  |  |  |  |  | 7500 nM
Cl.Nc1c2c(nc3cc(Cl)ccc13)CCCC2 |  |  |  |  | 19.8 ×10⁻⁶ cm/s |  | 7.1% | inactive | 
Cl.Cl.Cl.Cl.O=C(NCCCCCCCNc1c2c(nc3cc(Cl)ccc13)CCCC2)c1ccc2nc(-c3ccc(Cl)cc3)c3c(c2c1)OCCC3 | 10.3 nM | 1930 nM | 18.3 nM | 17.7 ×10⁻⁶ cm/s |  |  | 28.6% | 14.5% | 
Cl.Cl.Cl.Cl.O=C(NCCCCCCNc1c2c(nc3cc(Cl)ccc13)CCCC2)c1ccc2nc(-c3ccc(Cl)cc3)c3c(c2c1)OCCC3 | 20.4 nM | 1070 nM | 19.2 nM | 14.9 ×10⁻⁶ cm/s |  |  | 16.4% | inactive | 
Cl.Cl.Cl.O=C(CCc1ccc2nc(-c3ccccc3)c3c(c2c1)OCCC3)NCCCCNc1c2c(nc3cc(Cl)ccc13)CCCC2 | 48.1 nM | 586 nM | 16.6 nM |  | 15.1 ×10⁻⁶ cm/s |  | 45.3% | inactive | 
Cl.Cl.Cl.O=C(CCc1ccc2nc(-c3ccccc3)c3c(c2c1)OCCC3)NCCCCCCCNc1c2c(nc3cc(Cl)ccc13)CCCC2 | 29.9 nM | 234 nM | 14.4 nM | 10.2 ×10⁻⁶ cm/s |  |  | 49.1% | 34.4% | 
Cl.Cl.Cl.O=C(CCc1ccc2nc(-c3ccccc3)c3c(c2c1)OCCC3)NCCCCCCCCNc1c2c(nc3cc(Cl)ccc13)CCCC2 | 34.1 nM | 1080 nM | 14 nM | 10.1 ×10⁻⁶ cm/s |  |  | 47.3% | 77.8% | 1810 nM
COC(=O)CCc1ccc2nc(-c3ccccc3)c3c(c2c1)OCCC3 | > 10000 nM |  |  |  |  |  | inactive | inactive | 
Cl.Cl.O=C(CCc1ccc2nc(-c3ccccc3)c3c(c2c1)OCCC3)NCCCCCNc1c2c(nc3cc(Cl)ccc13)CCCC2 | 23.9 nM | 290 nM | 9.64 nM | 10.6 ×10⁻⁶ cm/s |  |  | 12.2% | inactive | 
